The values below come from ChEMBL document CHEMBL1201862, “PubChem BioAssay data set” (2004).

Some test systems named below: SK-OV-3; HL-60; OVCAR-8; Malme-3M; K562; M14; RXF 393; SF-539; OVCAR-4; HT-29; SNB-75; SF-295; A549; SF-268; CAKI-1; IGROV-1; PC-3; HOP-92.
Common to all, as to assay: inhibition of tumour cell growth, NCI panel, 48 h

SMILES strings stand for the structures.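 Method: 48-hour compound exposure of cells in 96-well plates, five concentrations, linear interpolation of endpoints. Abbreviation: GI50, concentration required for 50% inhibition of growth.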 Calls of active or inactive are those of the source. Rule as the data show it: active = GI50 up to about 1.1 µM and inactive = higher. Some results are limits rather than exact numbers.

For the compound `O=[N+]([O-])c1ccc(-c2cnc3ccccn23)cc1`, the GI50 with SK-OV-3 is 62.5 µM (inactive); in the assay on HL-60, 44.2 µM (inactive); in the assay with OVCAR-8, > 100 µM (inactive); in the assay with Malme-3M, > 100 µM (inactive); with K562, > 100 µM (inactive); in the assay with M14, > 100 µM (inactive). Also, the GI50 with RXF 393 was 24.2 µM (inactive); in the assay on SF-539, > 100 µM (inactive); in the assay with OVCAR-4, > 100 µM (inactive); in the assay with HT-29 it was > 100 µM (inactive); in the assay on SNB-75, 30.6 µM (inactive); in the assay with SF-295 it was > 100 µM (inactive). Also, the GI50 with A549 is > 100 µM (inactive); in the assay on SF-268 it was > 100 µM (inactive); in the assay on CAKI-1 it was 62.4 µM (inactive).

On to `COC(=O)c1sc(=S)sc1SCc1ccccc1CSc1sc(=S)sc1C(=O)OC`, for which the GI50 was > 100 µM (inactive) in the assay on IGROV-1; 46.6 µM (inactive) with SK-OV-3; > 100 µM (inactive) in the assay with OVCAR-8; > 100 µM (inactive) in the assay on Malme-3M; 38.5 µM (inactive) with K562; > 100 µM (inactive) with M14. The GI50 with RXF 393 is 44.3 µM (inactive); with OVCAR-4 it was > 100 µM (inactive); with PC-3, > 100 µM (inactive); in the assay with HOP-92, > 100 µM (inactive); in the assay on HT-29, > 100 µM (inactive); in the assay on SNB-75 it was 38.6 µM (inactive). The GI50 in the assay on SF-295 is 58.9 µM (inactive); in the assay on A549 it was > 100 µM (inactive); in the assay on SF-268, > 100 µM (inactive); with CAKI-1, > 100 µM (inactive).

Regarding `CC1(C)CC(=O)C2=C(C1)NC(SCC(=O)O)=C(C#N)C2c1ccc(Br)cc1` (stereo not drawn), the GI50 in the assay with IGROV-1, in the assay on SK-OV-3, with HL-60, in the assay on OVCAR-8, with M14 and in the assay on RXF 393 was > 100 µM (inactive) each time. In addition, the GI50 was > 100 µM (inactive) in the assay with OVCAR-4; > 100 µM (inactive) in the assay on PC-3; 27.4 µM (inactive) in the assay with HOP-92; > 100 µM (inactive) in the assay on HT-29; > 100 µM (inactive) with SNB-75; > 100 µM (inactive) in the assay with SF-295. Also, the GI50 with A549, in the assay with SF-268 and in the assay on CAKI-1 was > 100 µM (inactive) in each case.

Take `CC(C)SC(NC(=O)C1C(C)(C)CCC1(C)C)C(=O)O` (stereo not drawn): the GI50 with IGROV-1, in the assay on SK-OV-3, in the assay on HL-60, in the assay with OVCAR-8, in the assay on K562 and in the assay with M14 was > 100 µM (inactive) each time. Also, the GI50 in the assay with SF-539, in the assay with PC-3, with HOP-92, in the assay with SNB-75, with A549 and in the assay with SF-268 was > 100 µM (inactive) throughout.

Regarding `Cn1nc(-c2ccccc2NC(=O)C(F)(F)F)c(=O)n(C)c1=S`, the GI50 in the assay with IGROV-1 is 63.2 µM (inactive); in the assay on SK-OV-3, > 100 µM (inactive); in the assay on OVCAR-8, 23.9 µM (inactive); in the assay with Malme-3M, 37.8 µM (inactive); in the assay with K562, 15.9 µM (inactive); in the assay with M14, 19.8 µM (inactive). Moreover, the GI50 in the assay with RXF 393 is 39.9 µM (inactive); with SF-539, 29.4 µM (inactive); in the assay on OVCAR-4 it was 19.9 µM (inactive); with HOP-92 it was 15.2 µM (inactive); with HT-29, 25.8 µM (inactive); in the assay on SNB-75 it was 5.89 µM (inactive). Moreover, the GI50 in the assay on SF-295 was 58.2 µM (inactive); in the assay on A549 it was 50.5 µM (inactive); with SF-268 it was 25.8 µM (inactive); in the assay with CAKI-1, 33.6 µM (inactive).

On to `CC(=O)n1c2c(c(=O)n1-c1ccccc1)[S+]([O-])CCC2` (stereo not drawn), for which the GI50 was 99.1 µM (inactive) in the assay with IGROV-1; > 100 µM (inactive) with SK-OV-3; 24.4 µM (inactive) with HL-60; > 100 µM (inactive) with OVCAR-8; > 56.4 µM (inactive) in the assay with Malme-3M; 26.7 µM (inactive) in the assay with K562. The GI50 in the assay on M14 is 49.7 µM (inactive); with RXF 393 it was 15.6 µM (inactive); with SF-539, 20.4 µM (inactive); in the assay on OVCAR-4 it was 0.705 µM (active); in the assay with HT-29 it was 69.5 µM (inactive); in the assay with SNB-75 it was 51.4 µM (inactive). Moreover, the GI50 is > 92.9 µM (inactive) with A549, > 100 µM (inactive) in the assay on SF-268 and 55.5 µM (inactive) in the assay with CAKI-1.

Take `O=C(Cc1ccccc1)N/N=C(/CCN1CCCC1)CC(c1ccccc1)c1c(O)c2ccccc2oc1=O` (stereo not drawn): the GI50 was > 100 µM (inactive) in the assay on IGROV-1; > 100 µM (inactive) in the assay on SK-OV-3; 39.8 µM (inactive) with HL-60; > 100 µM (inactive) in the assay with OVCAR-8; 57.4 µM (inactive) with Malme-3M; > 100 µM (inactive) in the assay with K562. Besides, the GI50 is > 100 µM (inactive) with M14; > 100 µM (inactive) in the assay with SF-539; > 100 µM (inactive) with OVCAR-4; > 100 µM (inactive) in the assay on PC-3; 31.6 µM (inactive) in the assay with HOP-92; 75.9 µM (inactive) with HT-29. Further, the GI50 in the assay on SNB-75, in the assay on A549, in the assay on SF-268 and with CAKI-1 was > 100 µM (inactive) each time.

With `CN1C2(c3ccccc3)C(C(=O)c3ccccc3)=C(C(=O)c3ccccc3)C1(c1ccccc1)c1c(-c3ccccc3)sc(-c3ccccc3)c12`, the GI50 with IGROV-1, with SK-OV-3, in the assay with HL-60, in the assay on OVCAR-8, with Malme-3M and with K562 was > 100 µM (inactive) each time. Also, the GI50 in the assay on M14, in the assay on RXF 393, in the assay on SF-539, with OVCAR-4, with HOP-92 and in the assay on HT-29 was > 100 µM (inactive) in each case. Besides, the GI50 in the assay with SNB-75, with SF-295, in the assay with A549, in the assay on SF-268 and with CAKI-1 was > 100 µM (inactive) in each case.

Turning to `CC(C)(C)C1CC[C@H](O)[C@H]([C@@H](O)CC2CC(=O)N(c3ccccc3)C(=O)C2)C1` (stereo partly drawn), the GI50 with IGROV-1 is > 100 µM (inactive); in the assay on HL-60 it was 28.1 µM (inactive); in the assay with OVCAR-8, 50.7 µM (inactive); in the assay with Malme-3M, 65.5 µM (inactive); with K562, 54.1 µM (inactive); in the assay on M14 it was 43.8 µM (inactive). The GI50 in the assay on RXF 393 was 64 µM (inactive); in the assay on SF-539, > 100 µM (inactive); in the assay with OVCAR-4, 57.5 µM (inactive); with PC-3 it was 91.8 µM (inactive); in the assay on HOP-92, 23.3 µM (inactive); in the assay with HT-29 it was 23.1 µM (inactive). Also, the GI50 was > 100 µM (inactive) in the assay with SNB-75; > 100 µM (inactive) in the assay on SF-295; 67.5 µM (inactive) in the assay with A549; > 100 µM (inactive) in the assay with SF-268; > 100 µM (inactive) in the assay with CAKI-1.

In the case of `CCCCCCC1OC23OC1CCC2C(O)CCC3O` (stereo not drawn), the GI50 in the assay on IGROV-1, with HL-60, in the assay on OVCAR-8, with Malme-3M, with K562 and in the assay on RXF 393 was > 100 µM (inactive) each time. The GI50 with SF-539, in the assay with OVCAR-4, in the assay with PC-3, with HT-29, in the assay with SNB-75 and in the assay on SF-295 was > 100 µM (inactive) each time. The GI50 in the assay on SF-268 and with CAKI-1 was > 100 µM (inactive) each time.

For `COC(=O)/C=C1\C(CO[Si](C)(C)C(C)(C)C)OC(n2cc(C)c(=O)n(C)c2=O)C1O[Si](C)(C)C(C)(C)C` (stereo not drawn), the GI50 in the assay with IGROV-1, with SK-OV-3, in the assay with OVCAR-8, in the assay on Malme-3M, in the assay on K562 and in the assay with M14 was > 100 µM (inactive) each time. Moreover, the GI50 was 48.5 µM (inactive) in the assay with PC-3; > 100 µM (inactive) in the assay with HOP-92; > 100 µM (inactive) with HT-29; > 100 µM (inactive) with SNB-75; > 100 µM (inactive) in the assay on SF-295; > 100 µM (inactive) in the assay on A549. In addition, the GI50 in the assay with SF-268 is > 100 µM (inactive).

In the case of `CC(C)N1[C@@H]2CCCC[C@H]2N(C(C)C)P1(=O)C(=O)/C=C/c1ccccc1`, the GI50 in the assay on IGROV-1 was 1.98 µM (inactive); in the assay with HL-60 it was 1.65 µM (inactive); in the assay on OVCAR-8, 1.73 µM (inactive); with Malme-3M it was 1 µM (active); in the assay with K562, 2.52 µM (inactive); with M14, 2.02 µM (inactive). Moreover, the GI50 with RXF 393 is 1.69 µM (inactive); in the assay with SF-539, 1.82 µM (inactive); with OVCAR-4, 1.67 µM (inactive); with PC-3 it was 4.18 µM (inactive); with HOP-92, 1.76 µM (inactive); in the assay with HT-29, 2.79 µM (inactive). In addition, the GI50 was 10.6 µM (inactive) in the assay with SF-295, 3.35 µM (inactive) with A549, 2.44 µM (inactive) in the assay with SF-268 and 2.54 µM (inactive) in the assay on CAKI-1.

Regarding `COc1cccc(/C=N/NC(N)=O)c1O`, the GI50 in the assay with IGROV-1, in the assay with SK-OV-3, in the assay on OVCAR-8, with Malme-3M, with K562 and in the assay with M14 was > 100 µM (inactive) each time. The GI50 in the assay with RXF 393, in the assay on SF-539, in the assay on OVCAR-4, in the assay with HOP-92, in the assay with HT-29 and with SNB-75 was > 100 µM (inactive) in each case. Further, the GI50 with SF-295, in the assay with A549, in the assay on SF-268 and with CAKI-1 was > 100 µM (inactive) each time.
